Laboratory results from a compilation of properties of binary mixtures (doi:10.3866/pku.whxb202001015).

Assay: xn = mol fraction of the nth substance listed
Conditions: 293.15 K, 101.3 kPa

CC(=O)[O-].Cn1cc[nH+]c1 + CCO
Conditions | electrical conductivity [S/m]
x2 = 0.0616 | 0.449
x2 = 0.0975 | 0.527
x2 = 0.2701 | 0.821
x2 = 0.3985 | 1.33
x2 = 0.4978 | 1.7
x2 = 0.6604 | 2.27
x2 = 0.7397 | 2.34
x2 = 0.7865 | 1.92
x2 = 0.8291 | 1.52
x2 = 0.8486 | 1.31
x2 = 0.9522 | 0.312
x2 = 0.9648 | 0.199
x2 = 0.9725 | 0.139

CC(=O)[O-].Cn1cc[nH+]c1 + O
Conditions | electrical conductivity [S/m]
x2 = 0 | 0.326
x2 = 0.2845 | 2.06
x2 = 0.4277 | 3.44
x2 = 0.5098 | 4.31
x2 = 0.6959 | 6.95
x2 = 0.8691 | 9.7
x2 = 0.8823 | 8.7
x2 = 0.9207 | 5.18
x2 = 0.9425 | 2.9
x2 = 0.9559 | 1.7
x2 = 0.9677 | 0.849
